Test results from patent US20220322673A1, “Novel Agrochemical Combinations” (UPL LIMITED, priority 2019, published 2022).
Read-outs that look alike come from different tables or passages of the source.

Legend:
Format in all cases: in vivo
[1] = test system: Okra Mites; experiment: Trials on controlling Okra Mites post 2nd and 3rd application (Example 2); details: doses gm/ha: OSA 625 + Flonicamid 50 / Acetamipirid 50 / Lancer Gold 650, solo OSA 1250, Flonicamid 75, Acetamipirid 50, Lancer gold 650; for Percent control Mean: Mean of B07, C-01, C-10
Method: Trials were conducted to test the efficacy of the combination of Flonicamid and Orthosilicic acid on controlling Okra Mites at different dosages post 2nd and 3rd application.

[2] = test system: Okra Aphids (Aphis gossypii); details: for Percent control (%) of Okra Aphids, Nymphs + Adults, A01: A01 = 1 day after first spray; for Percent control (%) of Okra Aphids, Nymphs + Adults, A10: A10 (after 1st spray); for Percent control (%) of Okra Aphids, Nymphs + Adults, B03: B03 = 3 days after 2nd spray; for Percent control (%) of Okra Aphids, Nymphs + Adults, B07: B07 (after 2nd spray); for Percent control (%) of Okra Aphids, Nymphs + Adults, B10: B10 (after 2nd spray); for Percent control (%) of Okra Aphids, Nymphs + Adults, C03: C03 = 3 days after third spray; for Percent control (%) of Okra Aphids, Nymphs + Adults, C10: C10 (after third spray)
Excerpt: (§1) In this evaluation, feeding damage & insect population on Okra Leaves before and after sprays is averaged and analyzed for the test of significance. Application method: Three applications (application A, B and C) within an interval of 14 days.

[3] = test system: Okra Jassids (Amrasca bigutulla bigutulla); details: for Percent control (%) of Okra Jassids, Nymphs + Adults, A01: A01 = 1 day after first spray; for Percent control (%) of Okra Jassids, Nymphs + Adults, A10: A10 (after 1st spray); for Percent control (%) of Okra Jassids, Nymphs + Adults, B03: B03 = 3 days after 2nd spray; for Percent control (%) of Okra Jassids, Nymphs + Adults, B07: B07 (after 2nd spray); for Percent control (%) of Okra Jassids, Nymphs + Adults, B10: B10 (after 2nd spray); for Percent control (%) of Okra Jassids, Nymphs + Adults, B14: B14 (after 2nd spray); for Percent control (%) of Okra Jassids, Nymphs + Adults, C03: C03 = 3 days after third spray; for Percent control (%) of Okra Jassids, Nymphs + Adults, C10: C10 (after third spray)
Excerpt: as §1

[4] = test system: Okra Aphids; experiment: Trials of Flonicamid and Orthosilicic acid on controlling Okra Aphids (Example 1); details: doses gm/ha: OSA + Flonicamid 625 + 50, Flonicamid 75, OSA 1250
Method: Trials were conducted to test the efficacy of the combination of Flonicamid and Orthosilicic acid on controlling Okra Aphids at different dosages.

[5] = doses gm a.i./ha: OSA 25, Flonicamid 100, Acephate+Imidacloprid 520, Flonicamid+Fipronil 100+50, Imidacloprid 24.5, Acetamiprid 15
[6] = 25% reduced dose rate, gm a.i./ha: OSA 25, Flonicamid 75, Acephate+Imidacloprid 390, Flonicamid+Fipronil 75+37.5, Imidacloprid 18.3, Acetamiprid 11.2
[7] = reduced insecticide dose, gm a.i./ha: OSA 25, Flonicamid (Ulala) 75, Acephate+Imidacloprid 390, Flonicamid+Fipronil 75+37.5, Imidacloprid 18.3, Acetamiprid 11.2

| SMILES | Percent control B07 [1] [%] | Percent control C-01 [1] [%] | Percent control C-10 [1] [%] | Percent control Mean [1] [%] | Percent control (%) of Okra Aphids, Nymphs + Adults, A01 [2, 5] [%] | Percent control (%) of Okra Aphids, Nymphs + Adults, A10 [2, 5] [%] | Percent control (%) of Okra Aphids, Nymphs + Adults, B03 [2, 5] [%] | Percent control (%) of Okra Aphids, Nymphs + Adults, B07 [2, 5] [%] | Percent control (%) of Okra Aphids, Nymphs + Adults, B10 [2, 5] [%] | Percent control (%) of Okra Aphids, Nymphs + Adults, C03 [2, 5] [%] | Percent control (%) of Okra Aphids, Nymphs + Adults, C10 [2, 5] [%] | Percent control (%) of Okra Jassids, Nymphs + Adults, A01 [3, 6] [%] | Percent control (%) of Okra Jassids, Nymphs + Adults, A01 [3, 5] [%] | Percent control (%) of Okra Jassids, Nymphs + Adults, A10 [3, 6] [%] | Percent control (%) of Okra Jassids, Nymphs + Adults, A10 [3, 5] [%] | Percent control (%) of Okra Jassids, Nymphs + Adults, B03 [3, 6] [%] | Percent control (%) of Okra Jassids, Nymphs + Adults, B03 [3, 5] [%] | Percent control (%) of Okra Jassids, Nymphs + Adults, B07 [3, 6] [%] | Percent control (%) of Okra Jassids, Nymphs + Adults, B07 [3, 5] [%] | Percent control (%) of Okra Jassids, Nymphs + Adults, B10 [3, 6] [%] | further results |
| --- | --- | --- | --- | --- | --- | --- | --- | --- | --- | --- | --- | --- | --- | --- | --- | --- | --- | --- | --- | --- | --- |
| N#CCNC(=O)c1cnccc1C(F)(F)F [Flonicamid, N-cyanomethyl-4-trifluoromethylnicotinamide] | 31.8 | 39.5 | 34.0 | 35.1 | 78.2 | 91.9 | 95.1 | 95.5 | 93 | 94.7 | 94.9 | 71.2 | 74.8 | 85.8 | 89.3 | 82 | 90.7 | 89.3 | 93.3 | 91.5 | Percent control (%) of Okra Jassids, Nymphs + Adults, B10 [3, 5]: 94.2%; Percent control (%) of Okra Jassids, Nymphs + Adults, B14 [3, 6]: 87.4%; Percent control (%) of Okra Jassids, Nymphs + Adults, B14 [3, 5]: 89.3%; Percent control (%) of Okra Jassids, Nymphs + Adults, C03 [3, 6]: 90.2%; Percent control (%) of Okra Jassids, Nymphs + Adults, C03 [3, 5]: 93.3%; Percent control (%) of Okra Jassids, Nymphs + Adults, C10 [3, 6]: 92.5%; Percent control (%) of Okra Jassids, Nymphs + Adults, C10 [3, 5]: 94.4%; Percent control B01 ([4]; B01): 88.8%; Percent control C-01 ([4]; C-01): 91.8%; Percent control C-10 ([4]; C-10): 96%; Percent control Mean ([4]; Mean of B01, C-01, C-10): 92.2% |
| C/C(=N\C#N)N(C)Cc1ccc(Cl)nc1 [Acetamipirid, Acetamiprid] | 24.6 | 26.9 | 22.2 | 24.56 | 71.1 | 86.1 | 86.8 | 86.7 | 85 | 87.4 | 87.6 | 59.3 | 66.4 | 64.4 | 72.4 | 68.8 | 73.9 | 70.9 | 76.7 | 71.3 | Percent control (%) of Okra Aphids, Nymphs + Adults, A01 [2, 7]: 64.8%; Percent control (%) of Okra Aphids, Nymphs + Adults, A14 ([2]; A14 = 14 days after 1st spray, reduced insecticide dose, gm a.i./ha: OSA 25, Flonicamid (Ulala) 75, Acephate+Imidacloprid 390, Flonicamid+Fipronil 75+37.5, Imidacloprid 18.3, Acetamiprid 11.2): 74.7%; Percent control (%) of Okra Aphids, Nymphs + Adults, B03 [2, 7]: 79.7%; Percent control (%) of Okra Aphids, Nymphs + Adults, B07 [2, 7]: 81.8%; Percent control (%) of Okra Aphids, Nymphs + Adults, B10 [2, 7]: 82.5%; Percent control (%) of Okra Aphids, Nymphs + Adults, C03 [2, 7]: 86.9%; Percent control (%) of Okra Aphids, Nymphs + Adults, C10 [2, 7]: 86.5%; Percent control (%) of Okra Jassids, Nymphs + Adults, B10 [3, 5]: 76.9%; Percent control (%) of Okra Jassids, Nymphs + Adults, B14 [3, 6]: 66.6%; Percent control (%) of Okra Jassids, Nymphs + Adults, B14 [3, 5]: 70.9%; Percent control (%) of Okra Jassids, Nymphs + Adults, C03 [3, 6]: 69.5%; Percent control (%) of Okra Jassids, Nymphs + Adults, C03 [3, 5]: 74.8%; Percent control (%) of Okra Jassids, Nymphs + Adults, C10 [3, 6]: 70.7%; Percent control (%) of Okra Jassids, Nymphs + Adults, C10 [3, 5]: 79.3% |
